In PubChem BioAssay (NCI):
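Five compound concentrations were applied to cells in 96-well plates for 48 hours; endpoints were derived by simple linear interpolation of the resulting dose-response curve. TGI is the concentration that stops growth completely.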

What was measured:
Test in all cases: growth of human tumour cells (NCI), 48 h
[1] = tested on: PC-3 prostate
[2] = tested on: IGROV1 ovarian
[3] = tested on: SF-268 CNS
[4] = tested on: HS 578T breast
[5] = tested on: MDA-MB-435
[6] = tested on: NCI-H460 lung
[7] = tested on: NCI-H23 lung
[8] = tested on: MDA-N
[9] = tested on: 786-0 renal
[10] = tested on: SR leukemia
[11] = tested on: OVCAR-3 ovarian
[12] = tested on: U251 CNS
[13] = tested on: HOP-92 NSCLC
[14] = tested on: HCT-116 colon
[15] = tested on: UACC-257 melanoma
[16] = tested on: HCT-15 colon
[17] = tested on: NCI/ADR-RES ovarian
[18] = tested on: BT-549 breast
[19] = tested on: SF-295 CNS
[20] = tested on: KM12 colon
[21] = tested on: ACHN renal
[22] = tested on: OVCAR-8 ovarian
[23] = tested on: MOLT-4 leukemia
[24] = tested on: TK-10 renal
[25] = tested on: LOX IMVI melanoma
[26] = tested on: OVCAR-4 ovarian
[27] = tested on: CAKI-1 renal
[28] = tested on: NCI-H226 lung
[29] = tested on: DU-145 prostate
[30] = tested on: SNB-19 CNS
[31] = tested on: COLO 205 colon
[32] = tested on: SN12C renal
[33] = tested on: SK-MEL-28 melanoma
[34] = tested on: NCI-H522 lung
[35] = tested on: RPMI-8226 leukemia
[36] = tested on: SW-620 colon
[37] = tested on: HCC-2998 colon
[38] = tested on: A549 NSCLC
[39] = tested on: CCRF-CEM leukemia
[40] = tested on: MCF7 breast
[41] = tested on: A498 renal
[42] = tested on: RXF 393 renal
[43] = tested on: SF-539 CNS
[44] = tested on: SK-OV-3 ovarian
[45] = tested on: HT29 colon
[46] = tested on: HL-60(TB) leukemia
[47] = tested on: UO-31 renal
[48] = tested on: OVCAR-5 ovarian
[49] = tested on: SK-MEL-5 melanoma
[50] = tested on: HOP-62 NSCLC
[51] = tested on: K-562 leukemia
[52] = tested on: UACC-62 melanoma
[53] = tested on: EKVX NSCLC
[54] = tested on: T-47D breast
[55] = tested on: MALME-3M melanoma
[56] = tested on: M14 melanoma
[57] = tested on: MDA-MB-231 breast
[58] = tested on: SK-MEL-2 melanoma

Compound: CC(C)(C)c1ccc(C(C)(C)C)c(N2C(=O)[C@@H]3[C@@H]4C=C[C@@H](C4)[C@]3(C)C2=O)c1
- TGI [1]: 72.6 µM
- TGI [2]: 39.9 µM
- TGI [3]: 74 µM
- TGI [4]: 59.9 µM
- TGI [5]: 32.4 µM
- TGI [6]: > 100 µM
- TGI [7]: > 100 µM
- TGI [8]: 31.9 µM
- TGI [9]: 40.2 µM
- TGI [10]: 39.9 µM
- TGI [11]: 53 µM
- TGI [12]: 52.5 µM
- TGI [13]: 9.64 µM
- TGI [14]: 40.9 µM
- TGI [15]: 74.4 µM
- TGI [16]: 42.9 µM
- TGI [17]: > 100 µM
- TGI [18]: 57.7 µM
- TGI [19]: > 100 µM
- TGI [20]: > 100 µM
- TGI [21]: > 100 µM
- TGI [22]: 33.4 µM
- TGI [23]: 61 µM
- TGI [24]: > 100 µM
- TGI [25]: 26.8 µM
- TGI [26]: 26.7 µM
- TGI [27]: > 100 µM
- TGI [28]: > 100 µM
- TGI [29]: 53.5 µM
- TGI [30]: > 100 µM
- TGI [31]: > 100 µM
- TGI [32]: 52.3 µM
- TGI [33]: > 100 µM
- TGI [34]: 47.4 µM
- TGI [35]: 49.1 µM
- TGI [36]: 62.6 µM
- TGI [37]: 29.1 µM
- TGI [38]: > 100 µM
- TGI [39]: 32 µM
- TGI [40]: > 100 µM
- TGI [41]: 69.8 µM
- TGI [42]: 32.2 µM
- TGI [43]: > 100 µM
- TGI [44]: > 100 µM
- TGI [45]: > 100 µM
- TGI [46]: 40.4 µM
- TGI [47]: > 100 µM
- TGI [48]: > 100 µM
- TGI [49]: > 100 µM
- TGI [50]: > 100 µM
- TGI [51]: > 100 µM
- TGI [52]: 46.7 µM
- TGI [53]: > 100 µM
- TGI [54]: 82.6 µM
- TGI [55]: 53 µM
- TGI [56]: 51.3 µM
- TGI [57]: > 100 µM
- TGI [58]: 53.1 µM

Compound: C1CSC(Sc2nc(SC3=NCCS3)nc(SC3=NCCS3)n2)=N1
- TGI [1]: > 100 µM
- TGI [2]: > 100 µM
- TGI [3]: > 100 µM
- TGI [4]: > 100 µM
- TGI [5]: > 100 µM
- TGI [6]: > 100 µM
- TGI [7]: > 100 µM
- TGI [8]: > 100 µM
- TGI [9]: > 100 µM
- TGI [10]: > 100 µM
- TGI [11]: > 100 µM
- TGI [12]: > 100 µM
- TGI [13]: > 100 µM
- TGI [14]: > 100 µM
- TGI [15]: > 100 µM
- TGI [16]: > 100 µM
- TGI [17]: > 100 µM
- TGI [18]: > 100 µM
- TGI [19]: > 100 µM
- TGI [20]: > 100 µM
- TGI [21]: > 100 µM
- TGI [22]: > 100 µM
- TGI [23]: > 100 µM
- TGI [24]: > 100 µM
- TGI [25]: > 100 µM
- TGI [26]: > 100 µM
- TGI [27]: > 100 µM
- TGI [28]: > 100 µM
- TGI [29]: > 100 µM
- TGI [30]: > 100 µM
- TGI [31]: > 100 µM
- TGI [32]: > 100 µM
- TGI [33]: > 100 µM
- TGI [34]: > 100 µM
- TGI [35]: > 100 µM
- TGI [36]: > 100 µM
- TGI [37]: > 100 µM
- TGI [38]: > 100 µM
- TGI [39]: > 100 µM
- TGI [40]: > 100 µM
- TGI [41]: > 100 µM
- TGI [42]: > 100 µM
- TGI [43]: > 100 µM
- TGI [44]: > 100 µM
- TGI [45]: > 100 µM
- TGI [46]: > 100 µM
- TGI [47]: > 100 µM
- TGI [48]: > 100 µM
- TGI [49]: > 100 µM
- TGI [50]: > 100 µM
- TGI [51]: > 100 µM
- TGI [52]: > 100 µM
- TGI [53]: > 100 µM
- TGI [54]: > 100 µM
- TGI [55]: > 100 µM
- TGI [56]: > 100 µM
- TGI [57]: > 100 µM
- TGI [58]: > 100 µM
